Experimental findings from PubChem BioAssay (NCI) are described below.

Each structure is given as a SMILES string.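 Assay format: 96-well plates, 48-hour exposure. GI50 = concentration required for 50% inhibition of growth. TGI: concentration producing complete growth inhibition.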

As usually defined, the GI50 is the concentration at which growth is held to half of that of the control. The term TGI denotes the concentration at which net growth stops. Low readings indicate more potent growth arrest, high ones less potent growth arrest.

The first experiment has as its system TK-10 renal. As to the kind of experiment: DTP human tumour cell line panel, 48 h.
As for `C[C@@H]1CC[C@@H]2[C@@H]1[C@H](OC(=O)/C=C/c1ccccc1)[C@]1(c3ccccc3)C[C@@H](OC(=O)CO)[C@@]2(C)O1`, the GI50 is 18.2 µM and the TGI stood at 41.8 µM.
The corresponding values for `O=C(CSc1nc2ccc([N+](=O)[O-])cc2[nH]1)Nc1ccc(F)c(Cl)c1` are 4.08 µM and 15.9 µM.
For `Cc1nn(-c2ccc(F)cc2)c2ncnc(Nc3ccc(NC(=O)Nc4ccc(Cl)c(C(F)(F)F)c4)cc3)c12` the same measures were 2.85 µM and 10.4 µM.
The corresponding values for `Cc1ccn2c3c(c(C(=O)O)c2c1)C(=O)c1ccccc1C3=O` are greater than 100 µM and greater than 100 µM.
On to `COc1cc2c3c(cccc3c1)C(=O)N(CCN1CCCC1)C2=O`, for which the GI50 was 24.8 µM and the TGI was greater than 100 µM.
The corresponding values for `COc1cc2ncn(-c3cc(OCc4ccccc4Cl)c(C(N)=O)s3)c2cc1OC` are 3.04 µM and greater than 22 µM.

Another experiment relates to MOLT-4 leukemia. As to the kind of experiment: DTP human tumour cell line panel, 48 h.
For `C[C@@H]1CC[C@@H]2[C@@H]1[C@H](OC(=O)/C=C/c1ccccc1)[C@]1(c3ccccc3)C[C@@H](OC(=O)CO)[C@@]2(C)O1`, the GI50 was 6.86 µM and the TGI turned out to be 33.9 µM.
For `O=C(CSc1nc2ccc([N+](=O)[O-])cc2[nH]1)Nc1ccc(F)c(Cl)c1` the same measures were 2.7 µM and 19.9 µM.
The corresponding values for `Cc1nn(-c2ccc(F)cc2)c2ncnc(Nc3ccc(NC(=O)Nc4ccc(Cl)c(C(F)(F)F)c4)cc3)c12` are 2.67 µM and 22.2 µM.
For `Cc1ccn2c3c(c(C(=O)O)c2c1)C(=O)c1ccccc1C3=O` the same measures were greater than 100 µM and greater than 100 µM.
Regarding `COc1cc2c3c(cccc3c1)C(=O)N(CCN1CCCC1)C2=O`, the GI50 was 3.09 µM and the TGI is greater than 100 µM.
The corresponding values for `COc1cc2ncn(-c3cc(OCc4ccccc4Cl)c(C(N)=O)s3)c2cc1OC` are 0.118 µM and greater than 25 µM.

Another experiment deals with BT-549 breast. As to the kind of experiment: DTP human tumour cell line panel, 48 h.
On to `C[C@@H]1CC[C@@H]2[C@@H]1[C@H](OC(=O)/C=C/c1ccccc1)[C@]1(c3ccccc3)C[C@@H](OC(=O)CO)[C@@]2(C)O1`, for which the GI50 was 0.406 µM and the TGI came to 17.7 µM.
Regarding `O=C(CSc1nc2ccc([N+](=O)[O-])cc2[nH]1)Nc1ccc(F)c(Cl)c1`, the GI50 is 2.44 µM and the TGI stood at 9.34 µM.
For `Cc1nn(-c2ccc(F)cc2)c2ncnc(Nc3ccc(NC(=O)Nc4ccc(Cl)c(C(F)(F)F)c4)cc3)c12` the same measures were 2.39 µM and 8.48 µM.
The corresponding values for `Cc1ccn2c3c(c(C(=O)O)c2c1)C(=O)c1ccccc1C3=O` are 3.9 µM and 53.6 µM.
As to `COc1cc2c3c(cccc3c1)C(=O)N(CCN1CCCC1)C2=O`, the GI50 is 2.95 µM and the TGI worked out at 8.33 µM.
For `COc1cc2ncn(-c3cc(OCc4ccccc4Cl)c(C(N)=O)s3)c2cc1OC` the same measures were 1.41 µM and greater than 17 µM.

A further experiment concerns SK-OV-3 ovarian. As to the kind of experiment: DTP human tumour cell line panel, 48 h.
In the case of `C[C@@H]1CC[C@@H]2[C@@H]1[C@H](OC(=O)/C=C/c1ccccc1)[C@]1(c3ccccc3)C[C@@H](OC(=O)CO)[C@@]2(C)O1`, the GI50 is 23.4 µM and the TGI turned out to be 55.6 µM.
For `O=C(CSc1nc2ccc([N+](=O)[O-])cc2[nH]1)Nc1ccc(F)c(Cl)c1` the same measures were 1.42 µM and 4.79 µM.
The corresponding values for `Cc1nn(-c2ccc(F)cc2)c2ncnc(Nc3ccc(NC(=O)Nc4ccc(Cl)c(C(F)(F)F)c4)cc3)c12` are 3.8 µM and 14.5 µM.
The corresponding values for `Cc1ccn2c3c(c(C(=O)O)c2c1)C(=O)c1ccccc1C3=O` are greater than 100 µM and greater than 100 µM.
For the molecule `COc1cc2c3c(cccc3c1)C(=O)N(CCN1CCCC1)C2=O`, the GI50 is 3.27 µM and the TGI worked out at 14.5 µM.
For `COc1cc2ncn(-c3cc(OCc4ccccc4Cl)c(C(N)=O)s3)c2cc1OC` the same measures were 0.274 µM and 9.32 µM.

Another experiment deals with SK-MEL-28 melanoma. As to the kind of experiment: DTP human tumour cell line panel, 48 h.
For the molecule `C[C@@H]1CC[C@@H]2[C@@H]1[C@H](OC(=O)/C=C/c1ccccc1)[C@]1(c3ccccc3)C[C@@H](OC(=O)CO)[C@@]2(C)O1`, the GI50 was 16.3 µM and the TGI worked out at 33.4 µM.
The corresponding values for `O=C(CSc1nc2ccc([N+](=O)[O-])cc2[nH]1)Nc1ccc(F)c(Cl)c1` are 2.68 µM and 12.9 µM.
The corresponding values for `Cc1nn(-c2ccc(F)cc2)c2ncnc(Nc3ccc(NC(=O)Nc4ccc(Cl)c(C(F)(F)F)c4)cc3)c12` are 2.18 µM and 5.68 µM.
Turning to `Cc1ccn2c3c(c(C(=O)O)c2c1)C(=O)c1ccccc1C3=O`, the GI50 is 4.44 µM and the TGI was greater than 100 µM.
For `COc1cc2c3c(cccc3c1)C(=O)N(CCN1CCCC1)C2=O` the same measures were 1.84 µM and 3.43 µM.
The corresponding values for `COc1cc2ncn(-c3cc(OCc4ccccc4Cl)c(C(N)=O)s3)c2cc1OC` are 1.46 µM and greater than 25 µM.

Another experiment concerns KM12 colon. As to the kind of experiment: DTP human tumour cell line panel, 48 h.
Turning to `C[C@@H]1CC[C@@H]2[C@@H]1[C@H](OC(=O)/C=C/c1ccccc1)[C@]1(c3ccccc3)C[C@@H](OC(=O)CO)[C@@]2(C)O1`, the GI50 is 15.2 µM and the TGI was 38.1 µM.
The corresponding values for `O=C(CSc1nc2ccc([N+](=O)[O-])cc2[nH]1)Nc1ccc(F)c(Cl)c1` are 2.83 µM and 12.2 µM.
The corresponding values for `Cc1nn(-c2ccc(F)cc2)c2ncnc(Nc3ccc(NC(=O)Nc4ccc(Cl)c(C(F)(F)F)c4)cc3)c12` are 2.66 µM and 10.9 µM.
For `Cc1ccn2c3c(c(C(=O)O)c2c1)C(=O)c1ccccc1C3=O` the same measures were 9.31 µM and greater than 100 µM.
As to `COc1cc2c3c(cccc3c1)C(=O)N(CCN1CCCC1)C2=O`, the GI50 is 2.88 µM and the TGI is greater than 100 µM.
For `COc1cc2ncn(-c3cc(OCc4ccccc4Cl)c(C(N)=O)s3)c2cc1OC` the same measures were 0.0806 µM and greater than 11.8 µM.

In a further experiment the test system is MCF7 breast. As to the kind of experiment: DTP human tumour cell line panel, 48 h.
On to `C[C@@H]1CC[C@@H]2[C@@H]1[C@H](OC(=O)/C=C/c1ccccc1)[C@]1(c3ccccc3)C[C@@H](OC(=O)CO)[C@@]2(C)O1`, for which the GI50 was 9.19 µM and the TGI was 26.5 µM.
For `O=C(CSc1nc2ccc([N+](=O)[O-])cc2[nH]1)Nc1ccc(F)c(Cl)c1` the same measures were 2.03 µM and 9.4 µM.
The corresponding values for `Cc1nn(-c2ccc(F)cc2)c2ncnc(Nc3ccc(NC(=O)Nc4ccc(Cl)c(C(F)(F)F)c4)cc3)c12` are 2.11 µM and 6.67 µM.
The corresponding values for `Cc1ccn2c3c(c(C(=O)O)c2c1)C(=O)c1ccccc1C3=O` are 6.52 µM and 97.2 µM.
Consider `COc1cc2c3c(cccc3c1)C(=O)N(CCN1CCCC1)C2=O`, for which the GI50 was 1.71 µM and the TGI was determined as 20.4 µM.
For `COc1cc2ncn(-c3cc(OCc4ccccc4Cl)c(C(N)=O)s3)c2cc1OC` the same measures were 0.0885 µM and greater than 25 µM.

The subject of a further experiment is SF-268 CNS. As to the kind of experiment: DTP human tumour cell line panel, 48 h.
Turning to `C[C@@H]1CC[C@@H]2[C@@H]1[C@H](OC(=O)/C=C/c1ccccc1)[C@]1(c3ccccc3)C[C@@H](OC(=O)CO)[C@@]2(C)O1`, the GI50 was 10.4 µM and the TGI is 37.7 µM.
For `O=C(CSc1nc2ccc([N+](=O)[O-])cc2[nH]1)Nc1ccc(F)c(Cl)c1` the same measures were 2.91 µM and 13.2 µM.
The corresponding values for `Cc1nn(-c2ccc(F)cc2)c2ncnc(Nc3ccc(NC(=O)Nc4ccc(Cl)c(C(F)(F)F)c4)cc3)c12` are 3.55 µM and 21.8 µM.
For `Cc1ccn2c3c(c(C(=O)O)c2c1)C(=O)c1ccccc1C3=O` the same measures were greater than 100 µM and greater than 100 µM.
On to `COc1cc2c3c(cccc3c1)C(=O)N(CCN1CCCC1)C2=O`, for which the GI50 is 2.48 µM and the TGI came out at 9.06 µM.
For `COc1cc2ncn(-c3cc(OCc4ccccc4Cl)c(C(N)=O)s3)c2cc1OC` the same measures were 0.187 µM and greater than 13 µM.

In a further experiment the test system is A549 NSCLC. As to the kind of experiment: DTP human tumour cell line panel, 48 h.
Regarding `C[C@@H]1CC[C@@H]2[C@@H]1[C@H](OC(=O)/C=C/c1ccccc1)[C@]1(c3ccccc3)C[C@@H](OC(=O)CO)[C@@]2(C)O1`, the GI50 was 14.8 µM and the TGI was found to be 33.8 µM.
Regarding `O=C(CSc1nc2ccc([N+](=O)[O-])cc2[nH]1)Nc1ccc(F)c(Cl)c1`, the GI50 is 2.48 µM and the TGI is 12.6 µM.
The corresponding values for `Cc1nn(-c2ccc(F)cc2)c2ncnc(Nc3ccc(NC(=O)Nc4ccc(Cl)c(C(F)(F)F)c4)cc3)c12` are 1.8 µM and 4.26 µM.
As to `Cc1ccn2c3c(c(C(=O)O)c2c1)C(=O)c1ccccc1C3=O`, the GI50 is 1.77 µM and the TGI is 4.4 µM.
The corresponding values for `COc1cc2c3c(cccc3c1)C(=O)N(CCN1CCCC1)C2=O` are 1.91 µM and 5.31 µM.
Regarding `COc1cc2ncn(-c3cc(OCc4ccccc4Cl)c(C(N)=O)s3)c2cc1OC`, the GI50 was 0.29 µM and the TGI was greater than 10.8 µM.

For the next experiment, the system named is SNB-19 CNS. As to the kind of experiment: DTP human tumour cell line panel, 48 h.
On to `C[C@@H]1CC[C@@H]2[C@@H]1[C@H](OC(=O)/C=C/c1ccccc1)[C@]1(c3ccccc3)C[C@@H](OC(=O)CO)[C@@]2(C)O1`, for which the GI50 is 20.2 µM and the concentration for total growth inhibition (TGI) is 55.9 µM.
For `O=C(CSc1nc2ccc([N+](=O)[O-])cc2[nH]1)Nc1ccc(F)c(Cl)c1` the same measures were 2.83 µM and 13.1 µM.
For `Cc1nn(-c2ccc(F)cc2)c2ncnc(Nc3ccc(NC(=O)Nc4ccc(Cl)c(C(F)(F)F)c4)cc3)c12` the same measures were 2.93 µM and 10.2 µM.
The corresponding values for `Cc1ccn2c3c(c(C(=O)O)c2c1)C(=O)c1ccccc1C3=O` are 4.24 µM and greater than 100 µM.
In the case of `COc1cc2c3c(cccc3c1)C(=O)N(CCN1CCCC1)C2=O`, the GI50 is 2.83 µM and the TGI is 58.6 µM.
As for `COc1cc2ncn(-c3cc(OCc4ccccc4Cl)c(C(N)=O)s3)c2cc1OC`, the GI50 is 1 µM and the TGI was greater than 25 µM.
